According to patent US8143408B2, “N-(8-heteroaryltetrahydronaphtalene-2yl) or N-(5-heteroarylchromane-3-yl) carboxamide derivatives for the treatment of pain” (AstraZeneca AB, priority 2007, dated 2012):

Each compound was assayed against T1, Nav1.7 voltage-gated sodium channel (Homo sapiens, UniProt Q15858) (assay: Whole-cell voltage clamp electrophysiology assay). Conditions: cells stably expressing the voltage-gated sodium channel of interest.
T1 construct: Gene(s) encoding the full-length protein of the voltage-gated sodium channel of interest are cloned and expressed; expressed in transfected cells
T1 sequence (Q15858 whole entry): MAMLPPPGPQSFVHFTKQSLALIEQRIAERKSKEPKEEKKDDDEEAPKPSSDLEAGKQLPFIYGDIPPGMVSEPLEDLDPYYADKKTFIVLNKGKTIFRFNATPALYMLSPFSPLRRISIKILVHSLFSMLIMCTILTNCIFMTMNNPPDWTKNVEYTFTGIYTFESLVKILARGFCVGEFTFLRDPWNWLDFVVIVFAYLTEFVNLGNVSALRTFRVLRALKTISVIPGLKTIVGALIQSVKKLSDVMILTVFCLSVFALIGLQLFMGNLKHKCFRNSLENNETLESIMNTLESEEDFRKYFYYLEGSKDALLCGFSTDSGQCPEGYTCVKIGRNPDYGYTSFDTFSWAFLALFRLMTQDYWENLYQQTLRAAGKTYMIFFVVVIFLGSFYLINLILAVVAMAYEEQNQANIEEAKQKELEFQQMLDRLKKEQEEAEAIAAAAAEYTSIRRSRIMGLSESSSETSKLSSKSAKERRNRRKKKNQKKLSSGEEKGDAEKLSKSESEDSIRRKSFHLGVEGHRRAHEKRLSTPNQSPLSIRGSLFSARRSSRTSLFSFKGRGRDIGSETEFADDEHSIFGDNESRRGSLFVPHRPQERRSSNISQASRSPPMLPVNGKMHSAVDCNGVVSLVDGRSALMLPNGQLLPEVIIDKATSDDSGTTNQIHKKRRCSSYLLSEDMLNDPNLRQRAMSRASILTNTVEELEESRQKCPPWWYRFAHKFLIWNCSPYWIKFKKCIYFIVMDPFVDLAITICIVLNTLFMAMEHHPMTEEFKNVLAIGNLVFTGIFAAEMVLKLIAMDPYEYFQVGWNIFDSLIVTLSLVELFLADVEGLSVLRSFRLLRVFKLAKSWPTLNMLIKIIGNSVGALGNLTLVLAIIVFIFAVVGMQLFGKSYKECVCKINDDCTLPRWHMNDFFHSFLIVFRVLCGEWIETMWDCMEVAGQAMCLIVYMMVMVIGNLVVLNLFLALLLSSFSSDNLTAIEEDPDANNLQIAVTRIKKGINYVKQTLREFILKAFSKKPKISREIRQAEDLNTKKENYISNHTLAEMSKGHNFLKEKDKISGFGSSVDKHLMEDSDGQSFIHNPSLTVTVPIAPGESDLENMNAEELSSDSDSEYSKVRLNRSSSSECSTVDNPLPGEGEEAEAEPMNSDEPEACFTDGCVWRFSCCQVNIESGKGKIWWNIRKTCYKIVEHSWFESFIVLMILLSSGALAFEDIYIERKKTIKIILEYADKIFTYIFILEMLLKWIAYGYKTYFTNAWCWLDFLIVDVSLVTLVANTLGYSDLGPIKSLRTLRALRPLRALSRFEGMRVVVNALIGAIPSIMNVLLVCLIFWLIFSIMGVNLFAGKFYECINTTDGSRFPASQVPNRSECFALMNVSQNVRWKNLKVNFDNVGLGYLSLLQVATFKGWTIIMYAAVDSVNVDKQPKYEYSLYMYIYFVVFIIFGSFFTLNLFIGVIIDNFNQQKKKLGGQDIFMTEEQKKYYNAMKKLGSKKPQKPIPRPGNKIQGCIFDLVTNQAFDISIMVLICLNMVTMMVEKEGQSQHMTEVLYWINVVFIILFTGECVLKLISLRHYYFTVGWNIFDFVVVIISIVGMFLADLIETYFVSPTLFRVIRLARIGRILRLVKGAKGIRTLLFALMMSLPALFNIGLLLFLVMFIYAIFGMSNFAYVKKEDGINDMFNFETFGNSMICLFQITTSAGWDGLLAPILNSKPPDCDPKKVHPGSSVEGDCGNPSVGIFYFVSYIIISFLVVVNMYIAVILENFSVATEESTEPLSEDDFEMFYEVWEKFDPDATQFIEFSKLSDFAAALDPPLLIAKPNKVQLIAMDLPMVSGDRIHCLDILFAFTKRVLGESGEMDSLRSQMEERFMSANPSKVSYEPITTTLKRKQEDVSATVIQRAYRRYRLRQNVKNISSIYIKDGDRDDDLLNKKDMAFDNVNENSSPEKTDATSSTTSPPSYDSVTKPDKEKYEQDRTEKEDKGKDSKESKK
Format: cell-based
How it was run: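 Cells expressing full-length channel, exposed to drug by integrated pipetting on automated patch-clamp platforms or by microperfusion in conventional whole-cell patch clamp. Channels activated by a voltage protocol depolarising from a defined holding potential; buffers per platform manufacturer.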
In the case of `CCCCn1ccc(C(=O)N[C@@H]2COc3cccc(-c4cnc(OC)c(F)c4)c3C2)cc1=O` [Example 148, 1-butyl-N-[(3S)-5-(5-fluoro-6-methoxypyridin-3-yl)-3,4-dihydro-2H-chromen-3-yl]-2-oxo-1,2-dihydropyridine-4-carboxamide], the IC50 is reported as 794 nM.
With `COc1ncc(-c2cccc3c2C[C@H](NC(=O)c2cnc(OC4CCOC4)nc2)CO3)cc1F` (stereo partly drawn) [Example 149, N-[(3S)-5-(5-fluoro-6-methoxypyridin-3-yl)-3,4-dihydro-2H-chromen-3-yl]-2-(tetrahydrofuran-3-yloxy)pyrimidine-5-carboxamide] the IC50 was 6310 nM.
With `CCCCn1ccc(C(=O)N[C@@H]2COc3cccc(-c4cnc(OC)nc4)c3C2)cc1=O` [Example 150, 1-butyl-N-[(3S)-5-(2-methoxypyrimidin-5-yl)-3,4-dihydro-2H-chromen-3-yl]-2-oxo-1,2-dihydropyridine-4-carboxamide] the IC50 was 1000 nM.
`Cc1cc(-c2cccc3c2C[C@H](NC(=O)c2ccc(OC4CCCOC4)nc2)CO3)cnc1F` (stereo partly drawn) [Example 151, N-[(3S)-5-(6-fluoro-5-methylpyridin-3-yl)-3,4-dihydro-2H-chromen-3-yl]-6-(tetrahydro-2H-pyran-3-yloxy)nicotinamide] was tested, and the IC50 was 251 nM.
With `CCCCn1ccc(C(=O)N[C@@H]2COc3cccc(-c4cnc(F)c(C)c4)c3C2)cc1=O` [Example 152, 1-butyl-N-[(3S)-5-(6-fluoro-5-methylpyridin-3-yl)-3,4-dihydro-2H-chromen-3-yl]-2-oxo-1,2-dihydropyridine-4-carboxamide] the IC50 was 1260 nM.
`Cc1cc(-c2cccc3c2C[C@H](NC(=O)c2cnc(OC4CCCOC4)nc2)CO3)cnc1F` (stereo partly drawn) [Example 153, N-[(3S)-5-(6-fluoro-5-methylpyridin-3-yl)-3,4-dihydro-2H-chromen-3-yl]-2-(tetrahydro-2H-pyran-3-yloxy)pyrimidine-5-carboxamide] was tested, and the IC50 was 631 nM.
For `COc1ncc(-c2cccc3c2C[C@@H](NC(=O)c2ccc(OC4CCOCC4)nc2)CC3)cn1` [Example 154, N-[(2S)-8-(2-methoxypyrimidin-5-yl)-1,2,3,4-tetrahydronaphthalen-2-yl]-6-(tetrahydro-2H-pyran-4-yloxy)nicotinamide], the IC50 was 6310 nM.
Compound `Cc1ncc(-c2cccc3c2C[C@H](NC(=O)c2ccc(OC4CCOCC4)nc2)CO3)cn1` [Example 155, N-[(3S)-5-(2-methylpyrimidin-5-yl)-3,4-dihydro-2H-chromen-3-yl]-6-(tetrahydro-2H-pyran-4-yloxy)nicotinamide] has an IC50 of 1260 nM.
`COc1ncc(-c2cccc3c2C[C@H](NC(=O)c2ccc(OC4CCOCC4)nc2)CC3)cn1` [Example 156, N-[(2R)-8-(2-methoxypyrimidin-5-yl)-1,2,3,4-tetrahydronaphthalen-2-yl]-6-(tetrahydro-2H-pyran-4-yloxy)nicotinamide] showed an IC50 of 2000 nM.
In the case of `COc1ncc(-c2cccc3c2C[C@H](NC(=O)c2ccc(OC4CCCOC4)nc2)CO3)cn1` (stereo partly drawn) [Example 157, N-[(3S)-5-(2-methoxypyrimidin-5-yl)-3,4-dihydro-2H-chromen-3-yl]-6-(tetrahydro-2H-pyran-3-yloxy)nicotinamide], the IC50 is reported as 1000 nM.
`COc1ncc(-c2cccc3c2C[C@H](NC(=O)c2ccc(OC4CCOC4)nc2)CO3)cn1` (stereo partly drawn) [Example 158, N-[(3S)-5-(2-methoxypyrimidin-5-yl)-3,4-dihydro-2H-chromen-3-yl]-6-(tetrahydrofuran-3-yloxy)nicotinamide] showed an IC50 of 3980 nM.
For `Cc1ncc(-c2cccc3c2C[C@H](NC(=O)c2ccc(OC4CCOC4)nc2)CC3)cn1` (stereo partly drawn) [Example 159, N-[(2R)-8-(2-methylpyrimidin-5-yl)-1,2,3,4-tetrahydronaphthalen-2-yl]-6-(tetrahydrofuran-3-yloxy)nicotinamide], the IC50 was 6310 nM.
For `Cc1ncc(-c2cccc3c2C[C@H](NC(=O)c2ccc(OC4CCCOC4)nc2)CC3)cn1` (stereo partly drawn) [Example 160, N-[(2R)-8-(2-methylpyrimidin-5-yl)-1,2,3,4-tetrahydronaphthalen-2-yl]-6-(tetrahydro-2H-pyran-3-yloxy)nicotinamide], the IC50 was 3160 nM.
For `Cc1ncc(-c2cccc3c2C[C@H](NC(=O)c2ccc(OCC4CCCO4)nc2)CC3)cn1` (stereo partly drawn) [Example 161, N-[(2R)-8-(2-methylpyrimidin-5-yl)-1,2,3,4-tetrahydronaphthalen-2-yl]-6-(tetrahydrofuran-2-ylmethoxy)nicotinamide], the IC50 was 7940 nM.
Compound `COc1ncc(-c2cccc3c2C[C@H](NC(=O)c2ccc(OCCOCC(F)(F)F)nc2)CC3)cn1` [Example 162, N-[(2R)-8-(2-methoxypyrimidin-5-yl)-1,2,3,4-tetrahydronaphthalen-2-yl]-6-[2-(2,2,2-trifluoroethoxy)ethoxy]nicotinamide] has an IC50 of 501 nM.
`COc1ncc(-c2cccc3c2C[C@H](NC(=O)c2ccc(OCCOCC(F)(F)F)nc2)CO3)cn1` [Example 163, N-[(3S)-5-(2-methoxypyrimidin-5-yl)-3,4-dihydro-2H-chromen-3-yl]-6-[2-(2,2,2-trifluoroethoxy)ethoxy]nicotinamide] showed an IC50 of 39.8 nM.
`O=C(N[C@@H]1CCc2cccc(-c3cccnc3F)c2C1)c1ccc(OCC2COCCO2)nc1` (stereo partly drawn) [Example 164, 6-(1,4-dioxan-2-ylmethoxy)-N-[(2R)-8-(2-fluoropyridin-3-yl)-1,2,3,4-tetrahydronaphthalen-2-yl]nicotinamide] gave an IC50 of 1000 nM.
Work on `COc1cc(-c2cccc3c2C[C@H](NC(=O)c2ccc(OCC4COCCO4)nc2)CO3)ccn1` (stereo partly drawn) [Example 165, 6-(1,4-dioxan-2-ylmethoxy)-N-[(3S)-5-(2-methoxypyridin-4-yl)-3,4-dihydro-2H-chromen-3-yl]nicotinamide] yielded an IC50 of 158 nM.
Compound `COc1ncc(-c2cccc3c2C[C@H](NC(=O)c2ccc(OCC4COCCO4)nc2)CO3)cc1F` (stereo partly drawn) [Example 166, 6-(1,4-dioxan-2-ylmethoxy)-N-[(3S)-5-(5-fluoro-6-methoxypyridin-3-yl)-3,4-dihydro-2H-chromen-3-yl]nicotinamide] has an IC50 of 501 nM.
Work on `COc1ncc(-c2cccc3c2C[C@H](NC(=O)c2ccc(C(=O)NCCC(F)(F)F)nc2)CC3)cn1` [Example 167, N^5-[(2R)-8-(2-methoxypyrimidin-5-yl)-1,2,3,4-tetrahydronaphthalen-2-yl]-N^2-(3,3,3-trifluoropropyl)pyridine-2,5-dicarboxamide] yielded an IC50 of 398 nM.
Compound `CC#CCOc1ccc(C(=O)N[C@@H]2CCc3cccc(-c4cnc(OC)nc4)c3C2)cn1` [Example 168, 6-(but-2-yn-1-yloxy)-N-[(2R)-8-(2-methoxypyrimidin-5-yl)-1,2,3,4-tetrahydronaphthalen-2-yl]nicotinamide] has an IC50 of 6310 nM.
Work on `O=C(N[C@@H]1COc2cccc(-c3ccc4nccn4c3)c2C1)c1ccc(OC2CCOCC2)nc1` [Example 169, N-[(3S)-5-imidazo[1,2-a]pyridin-6-yl-3,4-dihydro-2H-chromen-3-yl]-6-(tetrahydro-2H-pyran-4-yloxy)nicotinamide] yielded an IC50 of 200 nM.
With `COc1ncc(-c2cccc3c2C[C@H](NC(=O)c2ccc(C(=O)NC4CCC(F)(F)CC4)nc2)CO3)cn1` [Example 170, N^2-(4,4-difluorocyclohexyl)-N^5-[(3S)-5-(2-methoxypyrimidin-5-yl)-3,4-dihydro-2H-chromen-3-yl]pyridine-2,5-dicarboxamide] the IC50 was 251 nM.
For `COc1ncc(-c2cccc3c2C[C@H](NC(=O)c2ccc(C(=O)NCCCC(F)(F)F)nc2)CO3)cn1` [Example 171, N^5-[(3S)-5-(2-methoxypyrimidin-5-yl)-3,4-dihydro-2H-chromen-3-yl]-N^2-(4,4,4-trifluorobutyl)pyridine-2,5-dicarboxamide], the IC50 was 126 nM.
`COc1ncc(-c2cccc3c2C[C@H](NC(=O)c2ccnc(OCCOCC(F)(F)F)c2)CO3)cn1` [Example 172, N-[(3S)-5-(2-methoxypyrimidin-5-yl)-3,4-dihydro-2H-chromen-3-yl]-2-[2-(2,2,2-trifluoroethoxy)ethoxy]isonicotinamide] gave an IC50 of 200 nM.
With `Cc1ncc(-c2cccc3c2C[C@H](NC(=O)c2ccc(C(=O)N(C)CC(F)(F)F)nc2)CO3)cn1` [Example 173, N^2-methyl-N^5-[(3S)-5-(2-methylpyrimidin-5-yl)-3,4-dihydro-2H-chromen-3-yl]-N^2-(2,2,2-trifluoroethyl)pyridine-2,5-dicarboxamide] the IC50 was 1580 nM.
For `CCc1ncc(-c2cccc3c2C[C@H](NC(=O)c2ccc(C(=O)NCCC(F)(F)F)nc2)CO3)cn1` [Example 174, N^5-[(3S)-5-(2-ethylpyrimidin-5-yl)-3,4-dihydro-2H-chromen-3-yl]-N^2-(3,3,3-trifluoropropyl)pyridine-2,5-dicarboxamide], the IC50 was 200 nM.
Compound `CS(=O)(=O)c1ccc(-c2cccc3c2C[C@H](NC(=O)c2ccc(OCCOCC(F)(F)F)nc2)CO3)cn1` [Example 175, N-{(3S)-5-[6-(methylsulfonyl)pyridin-3-yl]-3,4-dihydro-2H-chromen-3-yl}-6-[2-(2,2,2-trifluoroethoxy)ethoxy]nicotinamide] has an IC50 of 2510 nM.
With `N#Cc1ccc(-c2cccc3c2C[C@H](NC(=O)c2ccc(OCCOCC(F)(F)F)nc2)CO3)cn1` [Example 176, N-[(3S)-5-(6-cyanopyridin-3-yl)-3,4-dihydro-2H-chromen-3-yl]-6-[2-(2,2,2-trifluoroethoxy)ethoxy]nicotinamide] the IC50 was 126 nM.
In the case of `O=C(N[C@@H]1COc2cccc(-c3cnc(C4CC4)nc3)c2C1)c1ccc(OCCOCC(F)(F)F)nc1` [Example 177, N-[(3S)-5-(2-cyclopropylpyrimidin-5-yl)-3,4-dihydro-2H-chromen-3-yl]-6-[2-(2,2,2-trifluoroethoxy)ethoxy]nicotinamide], the IC50 is reported as 50.1 nM.
`CCc1ncc(-c2cccc3c2C[C@H](NC(=O)c2ccc(OCCOCC(F)(F)F)nc2)CO3)cn1` [Example 178, N-[(3S)-5-(2-ethylpyrimidin-5-yl)-3,4-dihydro-2H-chromen-3-yl]-6-[2-(2,2,2-trifluoroethoxy)ethoxy]nicotinamide] was tested, and the IC50 was 63.1 nM.
`COc1ncc(-c2cccc3c2C[C@H](NC(=O)c2ccc(C(=O)NCCC(F)(F)F)nc2)CO3)cc1F` [Example 179, N^5-[(3S)-5-(5-fluoro-6-methoxypyridin-3-yl)-3,4-dihydro-2H-chromen-3-yl]-N^2-(3,3,3-trifluoropropyl)pyridine-2,5-dicarboxamide] showed an IC50 of 200 nM.
